Reference: ChEMBL document CHEMBL3046307, “Synthesis and evaluation of 1-benzhydryl-sulfonyl-piperazine derivatives as inhibitors of MDA-MB-231 human breast cancer cell proliferation” (2007)

tested on: MDA-MB-231; assay: Cytotoxicity against Homo sapiens (human) MDA-MB-231 cells assessed as inhibition of cell proliferation at 2 mM after 72 hr by MTS assay relative to control; type: functional; conditions: MDA-MB-231, 72 h

Row | SMILES | inhibition at 2000 µM
1 | CS(=O)(=O)N1CCN(C(c2ccccc2)c2ccccc2)CC1 | 3.79%
2 | Cc1ccc(S(=O)(=O)N2CCN(C(c3ccccc3)c3ccccc3)CC2)cc1 | 10%
3 | O=S(=O)(c1ccc(Cl)cc1)N1CCN(C(c2ccccc2)c2ccccc2)CC1 | 1%
4 | CC(C)(C)c1ccc(S(=O)(=O)N2CCN(C(c3ccccc3)c3ccccc3)CC2)cc1 | 28.6%
5 | Cc1noc(C)c1S(=O)(=O)N1CCN(C(c2ccccc2)c2ccccc2)CC1 | 20.6%
